# Data from ChEMBL document CHEMBL1151911, “A microwave-assisted facile regioselective Fischer indole synthesis and antitubercular evaluation of novel 2-aryl-3,4-dihydro-2H-thieno[3,2-b]indoles” (2009).
# Tested on: Mycobacterium tuberculosis
# Test: Antimycobacterial activity against multi drug-resistant Mycobacterium tuberculosis
# Format: functional
row,SMILES,MIC [µg/mL]
1,Fc1ccc2[nH]c3c(c2c1)SC(c1ccc(Cl)cc1)C3 (stereo not given),1.56
2,Fc1ccc2[nH]c3c(c2c1)SC(c1ccccc1Cl)C3 (stereo not given),1.56
3,Cc1ccc(C2Cc3[nH]c4ccccc4c3S2)cc1 (stereo not given),12.5
4,Clc1ccc(C2Cc3[nH]c4ccc(Cl)cc4c3S2)c(Cl)c1 (stereo not given),0.4
5,CC[C@@H](CO)NCCN[C@@H](CC)CO [ETHAMBUTOL],12.5
6,Brc1ccccc1C1Cc2[nH]c3ccccc3c2S1 (stereo not given),3.13
7,CC(C)c1ccc(C2Cc3[nH]c4ccc(Cl)cc4c3S2)cc1 (stereo not given),0.78
8,Clc1ccc(C2Cc3[nH]c4ccccc4c3S2)c(Cl)c1 (stereo not given),0.78
9,Cc1ccc(C2Cc3[nH]c4ccc(Cl)cc4c3S2)cc1 (stereo not given),6.25
10,CO[C@H]1/C=C/O[C@@]2(C)Oc3c(C)c(O)c4c(O)c(c(/C=N/N5CCN(C)CC5)c(O)c4c3C2=O)NC(=O)/C(C)=C\C=C\[C@H](C)[C@H](O)[C@@H](C)[C@@H](O)[C@@H](C)[C@H](OC(C)=O)[C@@H]1C [RIFAMPIN],3.13
11,CC(C)c1ccc(C2Cc3[nH]c4ccccc4c3S2)cc1 (stereo not given),0.4
12,Cc1ccc(C2Cc3[nH]c4ccc(F)cc4c3S2)cc1 (stereo not given),1.56
13,Clc1ccc2[nH]c3c(c2c1)SC(c1ccccc1Cl)C3 (stereo not given),1.56
14,O=[N+]([O-])c1cccc(C2Cc3[nH]c4ccccc4c3S2)c1 (stereo not given),0.78
15,Fc1ccc2[nH]c3c(c2c1)SC(c1ccc(Cl)cc1Cl)C3 (stereo not given),0.4
16,Fc1ccc(C2Cc3[nH]c4ccc(Cl)cc4c3S2)cc1 (stereo not given),0.78
17,NNC(=O)c1ccncc1 [ISONIAZID],1.56
18,NC(=O)c1cnccn1 [PYRAZINAMIDE],50
19,CC(C)c1ccc(C2Cc3[nH]c4ccc(F)cc4c3S2)cc1 (stereo not given),0.4
20,Fc1ccc2[nH]c3c(c2c1)SC(c1ccccc1)C3 (stereo not given),12.5
